Earlier results on 1 substance are cited in US6096864A, “Peptides for use in wound treatment” (Johnson & Johnson Medical, Ltd., priority 1998, dated 2000).

The test system of this data set is human fibroblast. To be noted: concentration range 2.5 mM to 25 mM.

For Gly-Pro-Ala, the chemotactic activity result was “no chemotactic activity”.
